The values that follow come from the supplement of paper PMC10307832.

Test in all cases: relative viability (nuclei count vs DMSO), 5 days (fraction); higher = more cells survive
Compound in the assay “OSI-027 + Navitoclax”: COc1cccc2cc(-c3nc([C@H]4CC[C@H](C(=O)O)CC4)n4ncnc(N)c34)[nH]c12 [OSI-027] + CC1(C)CCC(c2ccc(Cl)cc2)=C(CN2CCN(c3ccc(C(=O)NS(=O)(=O)c4ccc(N[C@H](CCN5CCOCC5)CSc5ccccc5)c(S(=O)(=O)C(F)(F)F)c4)cc3)CC2)C1 [Navitoclax] (partner 0.5 µM)
In short, it runs like this:
(§1)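 The day after seeding in 1536-well plates, lung cancer cell lines were treated by pin tool with a single drug, or with a fixed anchor-drug dose together with five library-drug doses (not always all listed) in √10 steps. After 5 days, a combined fix-and-stain solution (final 0.05% Triton X-100, 1% formaldehyde, 1 ug/ml Hoechst) was added. Nuclei counted on 4× images gave relative viability as treated counts over vehicle counts, reported as the median of duplicate plates.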

Compound in the assay “OSI-027 + Crizotinib”: COc1cccc2cc(-c3nc([C@H]4CC[C@H](C(=O)O)CC4)n4ncnc(N)c34)[nH]c12 [OSI-027] + C[C@@H](Oc1cc(-c2cnn(C3CCNCC3)c2)cnc1N)c1c(Cl)ccc(F)c1Cl [Crizotinib] (partner 1 µM)
In short, it runs like this:
as §1

Compound in the assay “Vemurafenib + Dasatinib”: CCCS(=O)(=O)Nc1ccc(F)c(C(=O)c2c[nH]c3ncc(-c4ccc(Cl)cc4)cc23)c1F [Vemurafenib] + Cc1nc(Nc2ncc(C(=O)Nc3c(C)cccc3Cl)s2)cc(N2CCN(CCO)CC2)n1 [Dasatinib] (partner 0.075 µM)
The gist of the method: as §1

Compound in the assay “Vemurafenib + AZD7762”: CCCS(=O)(=O)Nc1ccc(F)c(C(=O)c2c[nH]c3ncc(-c4ccc(Cl)cc4)cc23)c1F [Vemurafenib] + NC(=O)Nc1cc(-c2cccc(F)c2)sc1C(=O)N[C@H]1CCCNC1 [AZD7762] (partner 0.2 µM)
The gist of the method:
as §1

Turning to LC-2-ad, the relative viability with OSI-027 + Navitoclax (first compound 0.01 µM) was 0.458; in the assay with OSI-027 + Navitoclax (first compound 0.03162 µM), 0.4; in the assay with OSI-027 + Navitoclax (first compound 0.1 µM), 0.372; with OSI-027 + Navitoclax (first compound 0.3162 µM), 0.243; in the assay with OSI-027 + Navitoclax (first compound 1 µM), 0.122; in the assay with OSI-027 + Crizotinib (first compound 0.01 µM), 0.49. Also, the relative viability in the assay with OSI-027 + Crizotinib (first compound 0.03162 µM) turned out to be 0.483; in the assay with OSI-027 + Crizotinib (first compound 0.1 µM), 0.458; with OSI-027 + Crizotinib (first compound 0.3162 µM) it was 0.474; in the assay with OSI-027 + Crizotinib (first compound 1 µM) it was 0.384; with Vemurafenib + Dasatinib (first compound 0.03162 µM) it was 0.592; with Vemurafenib + Dasatinib (first compound 0.1 µM), 0.669. The relative viability with Vemurafenib + Dasatinib (first compound 1 µM) stood at 0.559; with Vemurafenib + AZD7762 (first compound 0.03162 µM), 0.831; with Vemurafenib + AZD7762 (first compound 0.1 µM), 0.615; in the assay with Vemurafenib + AZD7762 (first compound 0.3162 µM), 0.749; in the assay with Vemurafenib + AZD7762 (first compound 1 µM) it was 0.818.

For NCI-H838, the relative viability with OSI-027 + Navitoclax (first compound 0.01 µM) stood at 0.981; with OSI-027 + Navitoclax (first compound 0.03162 µM), 0.998; with OSI-027 + Navitoclax (first compound 0.1 µM), 0.853; with OSI-027 + Navitoclax (first compound 0.3162 µM), 0.501; with OSI-027 + Navitoclax (first compound 1 µM), 0.276; with OSI-027 + Crizotinib (first compound 0.01 µM) it was 0.803. Further, the relative viability is 0.696 in the assay with OSI-027 + Crizotinib (first compound 0.03162 µM); 0.599 in the assay with OSI-027 + Crizotinib (first compound 0.1 µM); 0.447 with OSI-027 + Crizotinib (first compound 0.3162 µM); 0.367 with OSI-027 + Crizotinib (first compound 1 µM); 0.256 in the assay with Vemurafenib + Dasatinib (first compound 0.03162 µM); 0.22 in the assay with Vemurafenib + Dasatinib (first compound 0.1 µM). Also, the relative viability in the assay with Vemurafenib + Dasatinib (first compound 1 µM) was 0.325; with Vemurafenib + AZD7762 (first compound 0.03162 µM), 0.899; with Vemurafenib + AZD7762 (first compound 0.1 µM), 0.955; in the assay with Vemurafenib + AZD7762 (first compound 0.3162 µM) it was 0.709; with Vemurafenib + AZD7762 (first compound 1 µM) it was 0.918.

Turning to EMC-BAC-2, the relative viability with OSI-027 + Navitoclax (first compound 0.01 µM) was 1.17; in the assay with OSI-027 + Navitoclax (first compound 0.03162 µM), 1.05; with OSI-027 + Navitoclax (first compound 0.1 µM) it was 1.12; with OSI-027 + Navitoclax (first compound 0.3162 µM) it was 1.06; with OSI-027 + Navitoclax (first compound 1 µM) it was 0.436; in the assay with OSI-027 + Crizotinib (first compound 0.01 µM), 0.752. In addition, the relative viability with OSI-027 + Crizotinib (first compound 0.03162 µM) was 0.786; with OSI-027 + Crizotinib (first compound 0.1 µM), 0.737; with OSI-027 + Crizotinib (first compound 0.3162 µM), 0.683; with OSI-027 + Crizotinib (first compound 1 µM) it was 0.416; with Vemurafenib + Dasatinib (first compound 0.03162 µM), 0.175; with Vemurafenib + Dasatinib (first compound 0.1 µM), 0.28. The relative viability turned out to be 0.209 with Vemurafenib + Dasatinib (first compound 0.3162 µM); 0.337 with Vemurafenib + Dasatinib (first compound 1 µM); 1.06 in the assay with Vemurafenib + AZD7762 (first compound 0.03162 µM); 1.09 in the assay with Vemurafenib + AZD7762 (first compound 0.1 µM); 0.851 in the assay with Vemurafenib + AZD7762 (first compound 0.3162 µM); 1.05 in the assay with Vemurafenib + AZD7762 (first compound 1 µM).

Consider NCI-H3122, for which the relative viability with OSI-027 + Navitoclax (first compound 0.01 µM) came out at 1.03; with OSI-027 + Navitoclax (first compound 0.03162 µM), 1.14; in the assay with OSI-027 + Navitoclax (first compound 0.1 µM), 1.13; in the assay with OSI-027 + Navitoclax (first compound 0.3162 µM), 1.03; with OSI-027 + Navitoclax (first compound 1 µM), 0.334; in the assay with OSI-027 + Crizotinib (first compound 0.01 µM), 0.261. Moreover, the relative viability with OSI-027 + Crizotinib (first compound 0.03162 µM) worked out at 0.26; with OSI-027 + Crizotinib (first compound 0.1 µM) it was 0.266; with OSI-027 + Crizotinib (first compound 0.3162 µM) it was 0.215; with OSI-027 + Crizotinib (first compound 1 µM), 0.163; with Vemurafenib + Dasatinib (first compound 0.03162 µM) it was 0.652; with Vemurafenib + Dasatinib (first compound 0.1 µM), 0.598. The relative viability in the assay with Vemurafenib + Dasatinib (first compound 0.3162 µM) is 0.841; with Vemurafenib + Dasatinib (first compound 1 µM) it was 0.712; in the assay with Vemurafenib + AZD7762 (first compound 0.03162 µM), 0.988; with Vemurafenib + AZD7762 (first compound 0.1 µM), 0.895; with Vemurafenib + AZD7762 (first compound 0.3162 µM), 0.922; with Vemurafenib + AZD7762 (first compound 1 µM), 1.09.
